Three molecules from US10029000B2, “Uses of IL-12 in hematopoiesis” (University of Southern California, priority 2003, dated 2018) can be followed below.

This experiment has as its system lethally irradiated mice. Briefly: Radioprotection assay: survival of mice after total body lethal irradiation. It is filed as in vivo, mice (C57BL/6J). Particulars: cytokine given 1 hour post lethal dose radiation; for Survives: 4-5 mice per group. As for the experimental part:
Mice received recombinant murine IL-12 (100 ng/mouse (which is about 5 ug/kg on average), intravenous injection) before (24 hours) or after (1 hour) lethal dose radiation (1000 rad). Mice in control group received equal volume of PBS buffer. Survival rate were analyzed by Kaplan-Meier method and p value was calculated using Log Rank Test.
To determine the minimum effective radioprotective dose of IL-12, different dose of IL-112 were administered to lethally irradiated animals before (24 hours before) or post (within one hour) lethal dose ionizing radiation.
IL-12 was administrated to mice at different doses 24 hours before radiation to determine if there is a dose dependent relationship between the concentration of IL-12 administration and survival from lethal irradiation.
To further explore the relationship of IL-12 hematopoietic rescue effect as it may relate to the time of administration, IL-12 was administrated to lethally irradiated animals at different time before and after the radiation. The following time points were tested: −48, −36, −24, and −12 hours before radiation, or +1, +12, +24, and +36 hours post radiation.
A study was conducted to determine if the radioprotective effect of IL-12 administration is specific and INF- ? independent. […] Also, an assessment was made to determine if there was a synergistic effect between GM-CSF and IL-12.
Mice were provided with acid water for one week before the radioprotection assay. Cytokines, diluted in phosphate buffered saline (PBS), pH 7.4, were intravenously injected into mice before or after total body lethal irradiation (TBI) at the specified times. Control group mice were injected with PBS buffer. For TBI, mice were either exposed twice to ionizing irradiation ( ? -ray from Cesium 137) at 500 rad dose with a 3 hour interval, or one time at a dose of 1000 rad in a Gammacell 40 machine from Atomic Energy of Canada LTD (Kanafa, Ontario, Canada). The ? -ray exposure rate is 1 Gy/min. […] After irradiation, mice were given water containing antibiotics. For the survival curve, the Kaplan-Meier method was used. Each experiment was repeated three or more times.

With “GM-CSF: a cytokine to stimulate G and M cell production”, the “Survival rate (%)” value amounted to 0%, the radioprotective effect entry is “did not show any radioprotective effect” and the Survives was 0.
Taken in the same sequence, the figures for “IL-18: cytokine that, like IL-12, can induce the release of interferon” were 0%, “no radioprotective effect” and 0.

B1: IL-23: a heterodimer (p19+p40), which shares the same subunit p40 with IL-12 (protein, UniProt Q9NPF7 20-189; P29460 23-328, looked up)
Interleukin-23 subunit alpha: RAVPGGSSPAWTQCQQLSQKLCTLAWSAHPLVGHMDLREEGDEETTNDVPHIQCGDGCDPQGLRDNSQFCLQRIHQGLIFYEKLLGSDIFTGEPSLLPDSPVGQLHASLLGLSQLLQPEGHHWETQQIPSLSPSQPWQRLLLRFKILRSLQAFVAVAARVFAHGAATLSP
Interleukin-12 subunit beta: IWELKKDVYVVELDWYPDAPGEMVVLTCDTPEEDGITWTLDQSSEVLGSGKTLTIQVKEFGDAGQYTCHKGGEVLSHSLLLLHKKEDGIWSTDILKDQKEPKNKTFLRCEAKNYSGRFTCWWLTTISTDLTFSVKSSRGSSDPQGVTCGAATLSAERVRGDNKEYEYSVECQEDSACPAAEESLPIEVMVDAVHKLKYENYTSSFFIRDIIKPDPPKNLQLKPLKNSRQVEVSWEYPDTWSTPHSYFSLTFCVQVQGKSKREKKDRVFTDKTSATVICRKNASISVRAQDRYYSSSWSEWASVPCS
In the case of B1, the “Survival rate (%)” value was found to be 0%, the radioprotective effect result is on record as “no radioprotective effect” and the Survives came out at 0.
